A short description of series [1]: Insulin oral delivery in rats, serum human insulin by ELISA and serum glucose. Type of series: in vivo, Male Sprague-Dawley rats. Conditions: delivery agent compound dose 200 mg/kg, insulin dose 0.5 mg/kg, volume dose 1.0 ml/kg. On the procedure: Oral dosing (PO) compositions of delivery agent compound and human zinc insulin (minimum 26 IU/mg available from Calbiochem—Novabiochem Corp, La Jolla, Calif.) were prepared in deionized water. […] The solution was vortexed, then heated (about 37° C.) and sonicated. The pH was adjusted to about 7 to 8.5 with NaOH or HCl.
About 1.25 mg insulin from an insulin stock solution (15 mg/ml made from 0.5409 g insulin and […] deionized water, adjusting with HCl and NaOH to pH 8.15 and to obtain a clear solution using […]) was added to the solution and mixed by inverting.
The typical dosing and sampling protocols were as follows. […] A dosing group of five animals was administered one of the dosing solutions. […] The syringe was filled with dosing solution by drawing the solution through the catheter, which was then wiped dry. The catheter was placed down the esophagus leaving 1 cm of tubing past the incisors. Solution was administered by pressing the syringe plunger.
Serum insulin levels were determined with an Insulin ELISA Test Kit (Kit # DSL-10-1600 from Diagnostic Systems Laboratories, Inc., Webster, Tex.), modifying the standard protocol in order to optimize the sensitivity and linear range of the standard curve for the volumes and concentrations of the samples used in the present protocol. […]

A word on the melting point: it is the temperature of the solid-liquid transition. On to `O=C(O)CCCCNC(=O)c1ccc(Cl)cc1O` [Compound 1, 5-(2-Hydroxy-4-Chlorobenzoyl)Aminovaleric Acid], for which the melting point lay in the range of 140 to 141 °C. The “Mean peak serum insulin” value in series [1] worked out at 36.25 ± 2.5 μU/ml.

For the origin of these results see patent publication US7495030B2, “(5-(2-hydroxy-4-chlorobenzoyl) aminovaleric acid and salts thereof and compositions containing the same for delivering active agents” (Emisphere Technologies, Inc., priority 2000, dated 2009).
